Measurements published in patent US5702883A, “Methods for detection of mutagens using luminescence gene” (Kabushiki Kaisha Toyota Chuo Kenkyusho, priority 1993, dated 1997).

Legend:
[1] = system: S. typhimurium TA1535 (umu D,C SOS gene, luminescence genes of pUCD620); assay: Luminescence assay with genes for luciferase and the enzyme producing its substrate, Example 6; details: Table 2; response two times that without test substance; 30° C., 2 hours; S9 Mix where necessary
in vitro = details: s. typhimurium ta1535
[2] = system: S. typhimurium TA1535/pSK1002 (umu D,C SOS gene, β-galactosidase expression); assay: Conventional colorimetric method (umu test, β-galactosidase activity), Comparative Example 4; details: Table 2; response two times that without test substance; 37° C., 2 hours; S9 Mix where necessary
[3] = system: S. typhimurium TA1535 (umu D,C SOS gene, luciferase expression); details: for Minimum detectable concentration, Method of Present Invention: Table 1, response two times that without test substance, 37° C., 2 hours, S9Mix where necessary; for minimum detectable concentration, fold lower than conventional colorimetric method: first embodiment (luc) vs conventional method
[4] = Conventional colorimetric method (umu test, β-galactosidase activity), Comparative Example 3; details: s. typhimurium ta1535/psk1002
[5] = system: S. typhimurium TA1535/pSK1002 (umu D,C SOS gene, β-galactosidase expression); assay: as above; details: Table 1; response two times that without test substance; 37° C., 2 hours; S9Mix where necessary

SMILES | Minimum detectable concentration, Method of Present Invention [1] [µg/mL] | maximal fold induction (in vitro) | Minimum detectable concentration, Conventional Method [2] [µg/mL] | Minimum detectable concentration, Method of Present Invention [3] [µg/mL] | dynamic range (highest value of the ratio), expansion relative to conventional colorimetric method ([3]; first embodiment vs conventional colorimetric method) | maximal fold induction [4] | Minimum detectable concentration, Conventional Method [5] [µg/mL] | minimum detectable concentration, fold lower than conventional colorimetric method [3]
NC(=O)C(=Cc1ccc([N+](=O)[O-])o1)c1ccco1 [AF-2, 2-(2-furyl)-3-(5-nitro-2-furyl)-acrylamide] | 0.0005 | ~15 | 0.003 | 0.0005 | about 3 times | ~5 | 0.003 | 
Nc1ccc2cc3ccccc3cc2c1 [2-AA, 2-aminoanthracene] | 0.02 |  | 0.1 | 0.04 |  |  | 0.1 | 
c1ccc2c(c1)cc1ccc3cccc4ccc2c1c34 [Bap, benzo[a]pyrene] | 0.04 |  | 1 | 0.1 |  |  | 1 | about 10 times
O=[N+]([O-])c1cc[n+]([O-])c2ccccc12 [4NQO, 4-nitroquinoline 1-oxide] | 0.008 |  | 0.04 | 0.01 |  |  | 0.04 | 
O=[N+]([O-])c1ccc2ccc3cccc4ccc1c2c34 [1-NP, 1-nitropyrene] | 0.05 |  | 0.3 | 0.03 |  |  | 0.3 | about 10 times
